Assay: Water solubility examination
Format: physicochemical
Conditions: 1.44 mg of oridonin in 4 ml water
Protocol: Water solubility of the present nanoparticle is examined. 1.44 mg of oridonin is dissolved in 4 ml water. […] Large amount of white insoluble white oridonin powder is observed. On the other hand, oridonin functionalized selenium nanoparticle containing 1.68 mg of oridonin is prepared according to the present invention and dissolved in 4 ml water. […] The oridonin functionalized selenium nanoparticle aqueous solution is orangey red in color and no insoluble residue is observed.

For Oridonin, the water solubility was “insoluble in water”.

Source: patent US9624237B2 (priority 2015, dated 2017)
